Laboratory results reported in patent US9084805B2, “Sialic acid to support the immune system in the elderly” (Nestec S.A., priority 2008, dated 2015).

Columns and labels:
Assay type in all cases: in vivo, C57BL/6J mice
[1] = system: aged mice; assay: Delayed-type hypersensitivity (DTH) response, ear swelling after KLH elicitation, in aged mice; settings: aged mice (19-months old), 0.8 weight-% N-acetylneuraminic acid in AlN-93 diet, vs non-supplemented AlN-93, n=10
Method: Specific pathogen-free male C57BL/6J mice (4-weeks old) were purchased from Janvier (France). Mice were housed under conventional circumstances (12 hours light/dark cycle, temperature 22° C., humidity 56%) and received water and semi-synthetic Kliba 3436 diet ad libitum. Until the age of 5 months, mice were maintained at 5 per cage and then they were individually caged. All conditions and handling of the animals were approved by the Nestle and state ethical committees with the agreement of the Swiss Federal Veterinary Advisor. 19-months old mice were randomized into 2 groups of 10 animals and were fed with a semi-synthetic AlN-93 diet either non-supplemented (group control AlN-93, n=10) or supplemented with SiAc (0.8 weight-% N-acetylneuraminic acid in the diet) (group SiAc, n=10). During the 42 days of trial, all mice were allowed to drink and eat ad libitum.
The DTH response was used as an in vivo measure of cellular immunity. […] At 24 hours post-elicitation, and during the following 5 days, both the non-elicited (left ear) and the elicited ears (right ear) were measured. DTH responses (KLH-PBS) were expressed as the magnitude of ear swelling, i.e. the change in ear thickness using the following formula: Δ in ear thickness=[elicited ear (right, KLH) ear sickness−non-elicited (left, PBS) ear sickness], where Δ in ear thickness=[post-elicitation−pre-elicitation ear thickness].

[2] = system: TGF-β2; assay: Liver mRNA expression of TGF-β2 in aged mice (TaqMan low density array); settings: 0.8 weight-% N-acetylneuraminic acid in diet for 42 days, vs non-supplemented AlN-93, n=8
Method: (§1) Specific pathogen-free male C57BL/6J mice (4-weeks old) were purchased from Janvier (France). Mice were housed under conventional circumstances (12 hours light/dark cycle, temperature 22° C., humidity 56%) and received water and semi-synthetic Kliba 3436 diet ad libitum. Until the age of 5 months, mice were maintained at 5 per cage and then they were individually caged. All conditions and handling of the animals were approved by the Nestle and state ethical committees with the agreement of the Swiss Federal Veterinary Advisor. […]
(§2) Mice were killed on day 42 of trial. The expression of genes involved in inflammatory processes was determined in the liver of aged mice that were supplemented or not with SiAc for 42 days. […]
(§3) Liver samples were transferred into 1 ml of RNA lysis buffer (Macherey-Nagel, Düren, Germany) and homogenized using Ribolyzer (Hybaid, Waltham, Mass., USA) with the following setting: power at 6 for 20 seconds. […] RNA quantification was achieved using the Ribogreen RNA Quantitation Kit (Molecular Probes; Eugene, Oreg. USA), and RNA quality was assayed using Agilent RNA 6000 Nano LabChip Kit (Agilent Technologies, Palo Alto, USA). […]

[3] = system: HO-1; assay: Liver mRNA expression of HO-1 in aged mice (TaqMan low density array); settings: 0.8 weight-% N-acetylneuraminic acid in diet for 42 days, vs non-supplemented AlN-93, n=8
Method: as §1, §2, §3

[4] = system: SOD2; assay: Liver mRNA expression of SOD2 in aged mice (TaqMan low density array); settings: 0.8 weight-% N-acetylneuraminic acid in diet for 42 days, vs non-supplemented AlN-93, n=8
Method: as §1, §2, §3

CC(=O)N[C@H]1[C@H]([C@H](O)[C@H](O)CO)OC(O)(C(=O)O)C[C@@H]1O (stereo partly shown) [SiAc, N-acetylneuraminic acid]
cell-mediated immune response (DTH response, FIG. 1) [1]: improved
expression of gene encoding anti-inflammatory molecule TGF-β2 (FIG. 2) [2]: increased expression
expression of gene encoding HO-1, defence against oxidative damage (FIG. 2) [3]: increased expression
expression of gene encoding SOD2, defence against oxidative damage (FIG. 2) [4]: increased expression
